Measured values reported in patent US20120172375A1, “COMPOUNDS AND METHODS OF PROMOTING OLIGODENDROCYTE PRECURSOR DIFFERENTIATION” (priority 2008, published 2012).

Test system: oligodendrocyte progenitors
Experiment: Primary/secondary screening: oligodendrocyte progenitor morphology changes and Plp-EGFP fluorescence
Type: cell-based, mouse
Parameters: key to differentiation scale score (cell morphology): 1: bipolar, undifferentiated; 2: bipolar to tripolar, initiated differentiation; 3: multibranched, differentiated cells; 4: multibranched, differentiated cells showing membranous structures
Details: 10 μM, 48 hr
Experimental: Oligodendrocyte progenitors were generated from embryonic neural progenitors growing in cell aggregates known as neurospheres (Nphs). Nph were prepared from embryos at 14.5 days of gestation obtained from timed pregnant females of either wild type mice or the proteolipid protein-enhanced-green fluorescence protein (Plp-EGFP) transgenic mouse. In brief, after separation of meninges and cerebellum, cerebrum tissue was mechanically triturated with a 1 ml Gilson pipette until total tissue disaggregation was achieved, filtered through a 70 μm cell strainer (Fisher Scientific, Pittsburg, Pa.) and plated in 25 cm^2 plastic culture flasks (2 brains/flask). Nph proliferation media (NPM) was DMEM/F12, B27 neuronal supplement (Gibco, Baltimore, Md.) and 10 ng/ml EGF (Sigma, St. Louis, Mo.). After 48-72 hr, floating Nphs were passaged at a 1:3 ratio in the same medium every 3-4 days. To generate oligodendrocyte progenitors, single cells suspensions were obtained by chemical disgregation with the mouse NeuroCult dissociation kit (StemCell Technologies, Alberta, Canada). The single cell suspension was filtered through a 70 μm cell strainer and plated on 96-well poly-D-Lysine (PDL)-coated plates at a cell density of 1.5×10^4 cells/cm^2. Cells were maintained in NPM supplemented with 10 ng/ml PDGF/bFGF instead of EGF. Bipolar, oligodendrocyte progenitor cells were observed 24 hours after plating. […]
The small molecule library consists of handcrafted drug-like organic molecules with molecular weight in a range of 250-550, dissolved in DMSO at concentration of 5 mg/ml or […]. Their structure and >95% purity have been validated by NMR. […] Oligodendrocyte progenitor differentiation was scored using as 4 scale values as follows: 1: bipolar, undifferentiated; 2: bipolar to tripolar, initiated differentiation; 3: multibranched, differentiated cells; 4: multibranched, differentiated cells showing membranous structures (FIG. 1).
Differentiation induced by selected compounds was further validated by fluorescence microscopy in cells generated from our Plp-EGFP transgenic mouse. Increased fluorescence in treated oligodendrocyte progenitor was indicative of cell maturation and was again scored following the same scale. […] These were analyzed for cell toxicity assays by MTT were yellow 3-(4,5-Dimethylthiazol-2-yl)-2,5-diphenyltetrazolium bromide, a tetrazole (MTT) is reduced to purple formazan in the mitochondria of living cells, showing a solution color change measurable by OD620-590 (Data not shown). Further oligodendrocyte progenitor maturation in response to selected compounds was assessed by induction of myelin protein expression as determined by immunocytochemistry and western blot. […]

## CCS(=O)(=O)N1CCN(C(=O)COc2ccc(-c3ccccc3)cc2)CC1 [Compound A, 1-[(4-biphenylyloxy)acetyl]-4-(ethylsulfonyl)piperazine]
  differentiation scale score (cell morphology): 4
